The source made the active and inactive calls. The calls are words filed in the database; no cut-off is given here.
molecular target: T1, Metacaspase-2 (Trypanosoma brucei, UniProt Q8T8E7); assay: Inhibition of Trypanosoma brucei MAC2
T1 sequence (Q8T8E7 whole entry): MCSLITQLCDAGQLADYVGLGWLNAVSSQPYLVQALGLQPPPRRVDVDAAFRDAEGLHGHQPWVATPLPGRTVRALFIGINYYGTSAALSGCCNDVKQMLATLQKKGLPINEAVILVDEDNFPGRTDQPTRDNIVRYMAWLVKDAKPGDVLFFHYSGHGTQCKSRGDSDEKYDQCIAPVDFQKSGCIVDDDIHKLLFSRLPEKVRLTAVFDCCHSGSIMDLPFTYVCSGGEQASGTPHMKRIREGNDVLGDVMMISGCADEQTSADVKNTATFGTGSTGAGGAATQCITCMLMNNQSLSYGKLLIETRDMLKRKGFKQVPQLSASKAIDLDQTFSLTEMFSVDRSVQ

Question: Which IC50 does the source give for `N#CCN(CCCCn1ccnc1)C(=O)OCc1ccccc1` here?
Answer: The IC50 was > 100 µM.

Question: With `N#C[C@H](Cc1ccc(N)cc1)NC(=O)OCc1ccccc1` as the compound, how does the IC50 read?
Answer: The IC50 was > 100 µM.

Question: For `N#C[C@H](CCCNC(=N)N)NC(=O)OCc1ccccc1`, which IC50 is on record?
Answer: Its IC50 is 1.9 µM.

Question: Which IC50 does the source give for `NC(N)=NCCCC[C@H](NC(=O)OCc1ccccc1)C(=O)c1nc2ccccc2s1` here?
Answer: The IC50 was 4 µM.

Question: For `NCCCC[C@H](NC(=O)OCc1ccccc1)C(=O)c1nc2ccccc2s1`, which IC50 is on record?
Answer: The IC50 was 1.6 µM.

Question: For `Cn1c(C(=O)[C@H](CCCNC(=N)N)NC(=O)OCc2ccccc2)nc2ccccc21`, which IC50 is on record?
Answer: Its IC50 is 38.4 µM.

Question: `N=C(N)NCCC[C@H](NC(=O)OCc1ccccc1)C(=O)c1nccs1` was tested. Which IC50 did it give?
Answer: The IC50 was 2.2 µM.

Question: `N#CCN(CCCCN1CCN(c2ccc(F)cc2)CC1)C(=O)OCc1ccccc1` was tested. Which IC50 did it give?
Answer: Its IC50 is > 100 µM.

Question: How did the IC50 turn out when `N#CCN(CCCCN1CCCC1)C(=O)OCc1ccccc1` was run?
Answer: Its IC50 is > 100 µM.

test system: Trypanosoma brucei brucei; assay: Antiparasitic activity against Trypanosoma brucei brucei bloodstream form; format: functional, organism-based

Question: For `N#CCN(CCCCn1ccnc1)C(=O)OCc1ccccc1`, which IC50 is on record?
Answer: The IC50 was > 64 µM.

Question: With `N#C[C@H](Cc1ccc(N)cc1)NC(=O)OCc1ccccc1` as the compound, how does the IC50 read?
Answer: Its IC50 is 30.3 µM.

Question: `N#C[C@H](CCCNC(=N)N)NC(=O)OCc1ccccc1` was tested. Which IC50 did it give?
Answer: Its IC50 is > 64 µM.

Question: Which IC50 does the source give for `NC(N)=NCCCC[C@H](NC(=O)OCc1ccccc1)C(=O)c1nc2ccccc2s1` here?
Answer: Its IC50 is 11.4 µM.

Question: For `NCCCC[C@H](NC(=O)OCc1ccccc1)C(=O)c1nc2ccccc2s1`, which IC50 is on record?
Answer: Its IC50 is 10.6 µM.

Question: How did the IC50 turn out when `Cn1c(C(=O)[C@H](CCCNC(=N)N)NC(=O)OCc2ccccc2)nc2ccccc21` was run?
Answer: Its IC50 is 32.5 µM.

Question: `N=C(N)NCCC[C@H](NC(=O)OCc1ccccc1)C(=O)c1nccs1` was tested. Which IC50 did it give?
Answer: Its IC50 is > 64 µM.

Question: `N#CCN(CCCCN1CCN(c2ccc(F)cc2)CC1)C(=O)OCc1ccccc1` was tested. Which IC50 did it give?
Answer: Its IC50 is 22.6 µM.

Question: Which IC50 does the source give for `N#CCN(CCCCN1CCCC1)C(=O)OCc1ccccc1` here?
Answer: The IC50 was 52.1 µM.

test system: Trypanosoma cruzi; assay: Antiparasitic activity against Trypanosoma cruzi amastigotes; format: functional, organism-based

Question: How did the IC50 turn out when `N#CCN(CCCCn1ccnc1)C(=O)OCc1ccccc1` was run?
Answer: Its IC50 is 35.7 µM.

Question: Which IC50 does the source give for `N#C[C@H](Cc1ccc(N)cc1)NC(=O)OCc1ccccc1` here?
Answer: The IC50 was 28.6 µM.

Question: How did the IC50 turn out when `N#C[C@H](CCCNC(=N)N)NC(=O)OCc1ccccc1` was run?
Answer: The IC50 was > 64 µM.

Question: Which IC50 does the source give for `NC(N)=NCCCC[C@H](NC(=O)OCc1ccccc1)C(=O)c1nc2ccccc2s1` here?
Answer: Its IC50 is 5.5 µM.

Question: For `NCCCC[C@H](NC(=O)OCc1ccccc1)C(=O)c1nc2ccccc2s1`, which IC50 is on record?
Answer: The IC50 was 10.8 µM.

Question: With `Cn1c(C(=O)[C@H](CCCNC(=N)N)NC(=O)OCc2ccccc2)nc2ccccc21` as the compound, how does the IC50 read?
Answer: Its IC50 is 28.3 µM.

Question: With `N=C(N)NCCC[C@H](NC(=O)OCc1ccccc1)C(=O)c1nccs1` as the compound, how does the IC50 read?
Answer: Its IC50 is 38.7 µM.

Question: Which IC50 does the source give for `N#CCN(CCCCN1CCN(c2ccc(F)cc2)CC1)C(=O)OCc1ccccc1` here?
Answer: The IC50 was 7 µM.

Question: `N#CCN(CCCCN1CCCC1)C(=O)OCc1ccccc1` was tested. Which IC50 did it give?
Answer: Its IC50 is > 64 µM.

test system: Leishmania infantum; assay: Antiparasitic activity against Leishmania infantum amastigotes; format: functional, organism-based

Question: For `N#CCN(CCCCn1ccnc1)C(=O)OCc1ccccc1`, which IC50 is on record?
Answer: The IC50 was > 64 µM.

Question: `N#C[C@H](Cc1ccc(N)cc1)NC(=O)OCc1ccccc1` was tested. Which IC50 did it give?
Answer: The IC50 was > 64 µM.

Question: With `N#C[C@H](CCCNC(=N)N)NC(=O)OCc1ccccc1` as the compound, how does the IC50 read?
Answer: The IC50 was > 64 µM.

Question: With `NC(N)=NCCCC[C@H](NC(=O)OCc1ccccc1)C(=O)c1nc2ccccc2s1` as the compound, how does the IC50 read?
Answer: The IC50 was 45.4 µM.

Question: How did the IC50 turn out when `NCCCC[C@H](NC(=O)OCc1ccccc1)C(=O)c1nc2ccccc2s1` was run?
Answer: The IC50 was 22.8 µM.

Question: Which IC50 does the source give for `Cn1c(C(=O)[C@H](CCCNC(=N)N)NC(=O)OCc2ccccc2)nc2ccccc21` here?
Answer: The IC50 was > 64 µM.

Question: Which IC50 does the source give for `N=C(N)NCCC[C@H](NC(=O)OCc1ccccc1)C(=O)c1nccs1` here?
Answer: The IC50 was > 64 µM.

Question: With `N#CCN(CCCCN1CCN(c2ccc(F)cc2)CC1)C(=O)OCc1ccccc1` as the compound, how does the IC50 read?
Answer: The IC50 was > 64 µM.

Question: With `N#CCN(CCCCN1CCCC1)C(=O)OCc1ccccc1` as the compound, how does the IC50 read?
Answer: The IC50 was > 64 µM.

test system: Plasmodium falciparum; assay: Antiparasitic activity against Plasmodium falciparum ring stage and schizont; format: functional, organism-based

Question: How did the IC50 turn out when `N#CCN(CCCCn1ccnc1)C(=O)OCc1ccccc1` was run?
Answer: Its IC50 is 17.2 µM.

Question: Which IC50 does the source give for `N#C[C@H](Cc1ccc(N)cc1)NC(=O)OCc1ccccc1` here?
Answer: Its IC50 is 16.6 µM.

Question: How did the IC50 turn out when `N#C[C@H](CCCNC(=N)N)NC(=O)OCc1ccccc1` was run?
Answer: The IC50 was 50.2 µM.

Question: How did the IC50 turn out when `NC(N)=NCCCC[C@H](NC(=O)OCc1ccccc1)C(=O)c1nc2ccccc2s1` was run?
Answer: Its IC50 is 5.6 µM.

Question: Which IC50 does the source give for `NCCCC[C@H](NC(=O)OCc1ccccc1)C(=O)c1nc2ccccc2s1` here?
Answer: Its IC50 is 3 µM.

Question: `Cn1c(C(=O)[C@H](CCCNC(=N)N)NC(=O)OCc2ccccc2)nc2ccccc21` was tested. Which IC50 did it give?
Answer: The IC50 was 7.1 µM.

Question: How did the IC50 turn out when `N=C(N)NCCC[C@H](NC(=O)OCc1ccccc1)C(=O)c1nccs1` was run?
Answer: Its IC50 is 24.7 µM.

Question: Which IC50 does the source give for `N#CCN(CCCCN1CCN(c2ccc(F)cc2)CC1)C(=O)OCc1ccccc1` here?
Answer: The IC50 was > 64 µM.

Question: Which IC50 does the source give for `N#CCN(CCCCN1CCCC1)C(=O)OCc1ccccc1` here?
Answer: Its IC50 is 20.5 µM.

test system: MRC5; assay: Cytotoxicity against human MRC5 cells; format: cell-based

Question: `N#CCN(CCCCn1ccnc1)C(=O)OCc1ccccc1` was tested. Which IC50 did it give?
Answer: The IC50 was > 64 µM.

Question: How did the IC50 turn out when `N#C[C@H](Cc1ccc(N)cc1)NC(=O)OCc1ccccc1` was run?
Answer: Its IC50 is > 64 µM.

Question: Which IC50 does the source give for `N#C[C@H](CCCNC(=N)N)NC(=O)OCc1ccccc1` here?
Answer: The IC50 was > 64 µM.

Question: With `NC(N)=NCCCC[C@H](NC(=O)OCc1ccccc1)C(=O)c1nc2ccccc2s1` as the compound, how does the IC50 read?
Answer: Its IC50 is 19 µM.

Question: Which IC50 does the source give for `NCCCC[C@H](NC(=O)OCc1ccccc1)C(=O)c1nc2ccccc2s1` here?
Answer: Its IC50 is 20 µM.

Question: For `Cn1c(C(=O)[C@H](CCCNC(=N)N)NC(=O)OCc2ccccc2)nc2ccccc21`, which IC50 is on record?
Answer: The IC50 was > 64 µM.

Question: Which IC50 does the source give for `N=C(N)NCCC[C@H](NC(=O)OCc1ccccc1)C(=O)c1nccs1` here?
Answer: The IC50 was > 64 µM.

Question: `N#CCN(CCCCN1CCN(c2ccc(F)cc2)CC1)C(=O)OCc1ccccc1` was tested. Which IC50 did it give?
Answer: The IC50 was > 64 µM.

Question: Which IC50 does the source give for `N#CCN(CCCCN1CCCC1)C(=O)OCc1ccccc1` here?
Answer: The IC50 was > 64 µM.

molecular target: T2, Caspase-3 (Homo sapiens) (UniProt P42574); assay: Inhibition of human caspase 3
T2 sequence (whole entry): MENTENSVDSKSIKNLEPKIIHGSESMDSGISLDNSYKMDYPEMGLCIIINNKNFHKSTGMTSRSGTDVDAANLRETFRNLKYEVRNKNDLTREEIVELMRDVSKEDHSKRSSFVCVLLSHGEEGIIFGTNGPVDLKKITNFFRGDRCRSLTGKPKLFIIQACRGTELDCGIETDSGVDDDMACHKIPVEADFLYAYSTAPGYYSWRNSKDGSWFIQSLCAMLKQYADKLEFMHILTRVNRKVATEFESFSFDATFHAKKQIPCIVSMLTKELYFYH

Question: For `N#C[C@H](CCCNC(=N)N)NC(=O)OCc1ccccc1`, which inhibition is on record?
Answer: Its inhibition is “inactive”.

Question: For `Cn1c(C(=O)[C@H](CCCNC(=N)N)NC(=O)OCc2ccccc2)nc2ccccc21`, which inhibition is on record?
Answer: Its inhibition is “inactive”.

molecular target: T3, Metacaspase-3 (Trypanosoma brucei) (UniProt Q8T8E6); assay: Inhibition of Trypanosoma brucei MAC3
T3 sequence (whole entry): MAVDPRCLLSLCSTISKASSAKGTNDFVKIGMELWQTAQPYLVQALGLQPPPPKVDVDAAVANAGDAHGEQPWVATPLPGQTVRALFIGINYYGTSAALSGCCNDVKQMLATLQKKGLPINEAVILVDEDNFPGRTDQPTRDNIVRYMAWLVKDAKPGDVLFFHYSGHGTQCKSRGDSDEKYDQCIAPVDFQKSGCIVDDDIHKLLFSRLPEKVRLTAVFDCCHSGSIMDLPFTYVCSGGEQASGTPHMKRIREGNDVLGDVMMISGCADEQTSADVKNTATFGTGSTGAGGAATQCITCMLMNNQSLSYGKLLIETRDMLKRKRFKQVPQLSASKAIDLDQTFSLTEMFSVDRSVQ

Question: How did the inhibition turn out when `N#C[C@H](CCCNC(=N)N)NC(=O)OCc1ccccc1` was run?
Answer: Its inhibition is “Active”.

Question: `Cn1c(C(=O)[C@H](CCCNC(=N)N)NC(=O)OCc2ccccc2)nc2ccccc21` was tested. Which inhibition did it give?
Answer: Its inhibition is “Active”.

Question: For `N=C(N)NCCC[C@H](NC(=O)OCc1ccccc1)C(=O)c1nccs1`, which inhibition is on record?
Answer: The inhibition was “Active”.

Reference: ChEMBL document CHEMBL1155398, “Design and evaluation of Trypanosoma brucei metacaspase inhibitors” (Bioorg Med Chem Lett, 2010)
